{"source": "patent US20030103945A1", "about": "“Methods and compositions for stimulating axon regeneration and preventing neuronal cell degeneration” (priority 2001, published 2003)", "key": {"RGCs": {"test_system": "RGCs", "assay": "Dissociated retinal cell culture, RGC survival and neurite outgrowth", "format": "cell-based, mouse", "parameters": "RGC death in dissociated retinal cell culture: dose or concentration left out as unconfirmed", "from_the_text": "Whether these two activities of neurons, survival and axonal growth, can be separated in vitro was next examined. The anti-apoptotic function of bcl-2 is well established (Davies, A. A TINS 18, 355-358 (1995); Korsmeyer, S. J. hnmunol. Today 13, 285-288 (1992); Farlie, et al. Proc. Natl. Acad Sci. USA 92, 4397-4401 (1995); Bonfanti, L. et al. J Neurosci. 16, 4186-4194 (1996)). Therefore, it is especially important to examine whether its growth-promoting activity is simply an indirect consequence of supporting cell survival. […] Note that this occurs in the absence of any neurotrophic factors added to the culture medium. The effect of the ICE inhibitor was also tested in the explant coculture system with tissue prepared from wild-type P2 mice. […] While treatment with ZVAD was sufficient to prevent death of RGCs, it is not sufficient to promote axonal growth. […]\nThe brain sections were visualized with a Nikon microscope and site of the lesion was reconstructed in 3 dimensions with MIT Neurotrace computer software. […] Cell death was detected by staining with the fluorescent dye, SYTOX green fluorescent dead cell stain (Molecular Probes). […]"}, "retinal explants": {"test_system": "retinal explants", "assay": "Retinotectal explant coculture, cell death (SYTOX green) and retinal axon growth", "format": "cell-based, mouse", "parameters": "protection of cells from death compared with bcl-2 transgenic mouse: dose or concentration left out as unconfirmed", "conditions": "wild-type P2 mice", "from_the_text": "Whether these two activities of neurons, survival and axonal growth, can be separated in vitro was next examined. The anti-apoptotic function of bcl-2 is well established (Davies, A. A TINS 18, 355-358 (1995); Korsmeyer, S. J. hnmunol. Today 13, 285-288 (1992); Farlie, et al. Proc. Natl. Acad Sci. USA 92, 4397-4401 (1995); Bonfanti, L. et al. J Neurosci. 16, 4186-4194 (1996)). Therefore, it is especially important to examine whether its growth-promoting activity is simply an indirect consequence of supporting cell survival. […] Note that this occurs in the absence of any neurotrophic factors added to the culture medium. The effect of the ICE inhibitor was also tested in the explant coculture system with tissue prepared from wild-type P2 mice. […] While treatment with ZVAD was sufficient to prevent death of RGCs, it is not sufficient to promote axonal growth. […] Evidence from other investigators (when viewed in conjunction with that provided herein) also support the theme that cell survival and axonal growth are two independent activities of neurons (Sagot, Y., Tan, S. A-Hammang, J. P., Aebischer, P. & Kato, A. C. J Neurosci. 16, 2335-2341 (1996); Dusart, 1. & Sotelo, C. J Comp. Neurol. 347, 211-232 (1994)). The regenerative failure of retinal axons and the decrease of bcl-2 levels in RGCs occur (E 18) before programmed cell death starts (P 1 P5) (Young, R. W. J Comp. Neurol. 229, 362-373 (1984)). […] These all support the position that bcl-2 promotes axonal growth through a mechanism independent of its anti apoptotic activity.\nBrains were dissected into ice-cold Gey's balanced salt solution enriched with glucose. […] Retinal explants were abutted against tectal slices. Tissues were placed on the microporous membrane of Millicell wells (Millipore) and maintained in NeuralBasal medium supplemented with B27 (GIBCO Inc., New York) at 370C for five days. To exclude the possibility that tectal tissues from mutant mice may affect axonal growth of RGCs, a series of parallel experiments were performed in which one retinal explant of each mouse was confronted with the tecturn from the same mouse, while the second retinal explant was placed against the tecturn from another mouse. With this arrangement, retinal explants from each animal had the possibility of being cocultured with the tecturn from a wild-type, heterozygous, or homozygous animal. The number of regenerating axons was sampled by applying the lipophilic carbocyanine fluorescent label, DiI, in crystals to fixed retinal explants. The cocultures were stored in fixative for two-four weeks to allow diffusion of the dye, and labeled retinal axons were viewed with a fluorescence microscope (Nikon).\nThe brain sections were visualized with a Nikon microscope and site of the lesion was reconstructed in 3 dimensions with MIT Neurotrace computer software. Primary cultures of dissociated retinal cells were prepared from […] wild type or transgenic animals. RGCs were prelabeled by injecting DiI solution (25% in Dimethyl Formamide) into the tectal region bilaterally in PO pups. Cells were plated in 24-cell wells treated with poly-L-lysine (10 μg/ml, 4° C. overnight) and coated with Human Merosin ([…], r.t., 2 hr)(Meyer-Franke, A. and Barres, B. A. Neuron 15, 805-819 (1995)). Cultures were maintained for 2 to 3 days in NeuralBasal medium supplemented with B27. […] Cell death was detected by staining with the fluorescent dye, SYTOX green fluorescent dead cell stain (Molecular Probes). […]"}, "[1]": {"conditions": "increasing concentration of ZVAD (50, 100, 200)"}}, "note": "Where a SMILES comes first, the peptide text is derived from it. The star is where a group is joined. Cbz = O=C(OCc1ccccc1)*; CH2F = FC*"}
{"compound": "CC(C)[C@H](NC(=O)OCc1ccccc1)C(=O)N[C@@H](C)C(=O)N[C@@H](CC(=O)O)C(=O)CF", "note": "[ZVAD, Z-Val-Ala-Asp-CH2F] (Cbz-Val-Ala-Asp-CH2F)", "values": [{"measurement": "RGC death in dissociated retinal cell culture", "setting": "RGCs; 2 days in culture, retinae of P2 pups", "result": "effectively reduced RGC death"}, {"measurement": "morphology and neurites of labeled RGCs from wild-type animals", "setting": "RGCs; ZVAD-treated dissociated culture, no neurotrophic factors added", "result": "round and devoid of neurites"}, {"measurement": "number of axons that invaded tectal slices, wild-type cultures versus bcl-2 transgenic mice", "setting": "retinal explants; 200 mM ZVAD", "result": 10, "unit": "fold less"}, {"measurement": "number of dying cells in retinal explants with increasing concentration", "setting": "retinal explants; [1]", "result": "decreased"}, {"measurement": "number of growing axons with increasing concentration", "setting": "retinal explants; [1]", "result": "did not change significantly"}, {"measurement": "protection of cells from death compared with bcl-2 transgenic mouse", "setting": "retinal explants", "result": "protected cells from death almost as well as bcl-2 in the transgenic mouse"}, {"measurement": "extent of cell death in retinal explants", "setting": "retinal explants; explant coculture", "result": "reduced the extent of cell death in retinal explants"}]}
